From ChEMBL document CHEMBL1201862, “PubChem BioAssay data set” (2004)
The source made the active and inactive calls.

How the values were obtained:
Type in all cases: functional
[1] = target: Melanin-concentrating hormone receptor 1 (Homo sapiens, UniProt Q99705); experiment: Late-stage fluorescence-based counterscreen for antagonists of the G-protein coupled receptor 7 (GPR7): cell-based dose response assay to identify antagonists of the melanin-concentrating hormone receptor 1 (MCHR1) Set 6.
[2] = target: T1, Neuropeptides B/W receptor type 1 (Homo sapiens, UniProt P48145); experiment: human NPBW1 receptor blockade, IC50 – cell-based, fluorescence, dose response, set 6, late-stage follow-up (AID 588583)
T1 sequence (P48145 whole entry): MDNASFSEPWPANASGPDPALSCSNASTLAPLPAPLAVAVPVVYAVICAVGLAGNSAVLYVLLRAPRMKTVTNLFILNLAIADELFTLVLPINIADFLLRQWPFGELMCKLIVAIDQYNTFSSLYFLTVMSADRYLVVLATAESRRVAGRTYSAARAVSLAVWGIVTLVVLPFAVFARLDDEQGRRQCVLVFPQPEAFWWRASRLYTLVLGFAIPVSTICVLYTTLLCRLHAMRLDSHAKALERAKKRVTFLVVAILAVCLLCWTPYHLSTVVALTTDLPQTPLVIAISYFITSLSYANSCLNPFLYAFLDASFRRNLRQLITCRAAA

Vero = experiment: cells; conditions: Chlorocebus sabaeus
[3] = loss of viability in HepG2 cells – cell-based, CellTiter-Glo, cherry-picked, cytotoxicity control for Shn3 inhibitor project, dose response (AID 624134)
[4] = target: T2, High affinity choline transporter 1 (Homo sapiens, UniProt Q9GZV3); experiment: human choline transporter blockers, potency – cell-based, 10-point CRC, membrane potential dye, dose response (AID 588401);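 also: membrane potential dye fluorescence of choline-evoked depolarization via CHT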
T2 sequence (Q9GZV3 whole entry): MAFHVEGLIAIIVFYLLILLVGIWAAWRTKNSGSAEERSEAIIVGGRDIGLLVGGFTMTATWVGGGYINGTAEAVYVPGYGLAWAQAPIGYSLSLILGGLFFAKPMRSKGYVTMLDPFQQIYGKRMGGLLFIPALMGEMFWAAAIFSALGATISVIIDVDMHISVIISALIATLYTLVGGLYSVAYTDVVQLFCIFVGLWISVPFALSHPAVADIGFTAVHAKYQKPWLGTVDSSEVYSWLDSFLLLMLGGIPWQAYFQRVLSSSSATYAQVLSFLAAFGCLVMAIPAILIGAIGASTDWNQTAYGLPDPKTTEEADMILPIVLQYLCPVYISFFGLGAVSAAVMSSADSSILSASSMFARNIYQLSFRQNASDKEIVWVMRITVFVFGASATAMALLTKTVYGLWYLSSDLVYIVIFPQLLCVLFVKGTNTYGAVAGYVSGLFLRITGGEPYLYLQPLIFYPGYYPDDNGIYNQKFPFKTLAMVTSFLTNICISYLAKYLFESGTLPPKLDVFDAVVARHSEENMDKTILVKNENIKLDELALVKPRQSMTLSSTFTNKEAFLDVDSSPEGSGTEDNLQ

Protein RecA = target: T3, Protein RecA (Mycobacterium tuberculosis, UniProt P9WHJ3); experiment: Fluorescence Cell-Free Homogeneous Dose Retest to Identify Inhibitors of RecA-Intein Splicing Activity. [Related pubchem assays (depositor defined):AID2097, AID2223, AID489010, AID492950]
T3 sequence (P9WHJ3 whole entry): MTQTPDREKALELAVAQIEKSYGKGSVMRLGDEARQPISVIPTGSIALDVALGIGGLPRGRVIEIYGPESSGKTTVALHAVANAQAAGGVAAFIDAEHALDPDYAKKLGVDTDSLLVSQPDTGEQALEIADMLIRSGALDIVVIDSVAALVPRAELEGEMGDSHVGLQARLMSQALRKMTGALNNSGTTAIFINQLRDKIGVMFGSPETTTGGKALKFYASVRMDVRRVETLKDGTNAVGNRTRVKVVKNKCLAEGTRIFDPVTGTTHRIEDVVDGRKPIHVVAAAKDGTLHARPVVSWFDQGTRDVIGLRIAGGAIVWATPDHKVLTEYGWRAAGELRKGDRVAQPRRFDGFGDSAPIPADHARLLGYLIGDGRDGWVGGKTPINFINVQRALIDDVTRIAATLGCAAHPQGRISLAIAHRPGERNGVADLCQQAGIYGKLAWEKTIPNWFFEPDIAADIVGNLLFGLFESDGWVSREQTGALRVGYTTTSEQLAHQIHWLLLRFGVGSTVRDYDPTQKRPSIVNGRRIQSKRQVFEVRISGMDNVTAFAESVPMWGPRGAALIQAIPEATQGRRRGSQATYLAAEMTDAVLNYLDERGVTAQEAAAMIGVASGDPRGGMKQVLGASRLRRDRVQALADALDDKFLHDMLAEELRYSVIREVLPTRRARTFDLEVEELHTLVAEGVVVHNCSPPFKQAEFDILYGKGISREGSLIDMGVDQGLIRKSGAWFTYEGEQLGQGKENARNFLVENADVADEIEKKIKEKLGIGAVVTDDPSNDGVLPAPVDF

[5] = target: T4, Replicative DNA helicase DnaB (Mycobacterium tuberculosis, UniProt P9WMR3); experiment: DnaB intein splicing inhibitors, dose response, biochemical, cell-free fluorescence (AID 449749)
T4 sequence (P9WMR3 whole entry): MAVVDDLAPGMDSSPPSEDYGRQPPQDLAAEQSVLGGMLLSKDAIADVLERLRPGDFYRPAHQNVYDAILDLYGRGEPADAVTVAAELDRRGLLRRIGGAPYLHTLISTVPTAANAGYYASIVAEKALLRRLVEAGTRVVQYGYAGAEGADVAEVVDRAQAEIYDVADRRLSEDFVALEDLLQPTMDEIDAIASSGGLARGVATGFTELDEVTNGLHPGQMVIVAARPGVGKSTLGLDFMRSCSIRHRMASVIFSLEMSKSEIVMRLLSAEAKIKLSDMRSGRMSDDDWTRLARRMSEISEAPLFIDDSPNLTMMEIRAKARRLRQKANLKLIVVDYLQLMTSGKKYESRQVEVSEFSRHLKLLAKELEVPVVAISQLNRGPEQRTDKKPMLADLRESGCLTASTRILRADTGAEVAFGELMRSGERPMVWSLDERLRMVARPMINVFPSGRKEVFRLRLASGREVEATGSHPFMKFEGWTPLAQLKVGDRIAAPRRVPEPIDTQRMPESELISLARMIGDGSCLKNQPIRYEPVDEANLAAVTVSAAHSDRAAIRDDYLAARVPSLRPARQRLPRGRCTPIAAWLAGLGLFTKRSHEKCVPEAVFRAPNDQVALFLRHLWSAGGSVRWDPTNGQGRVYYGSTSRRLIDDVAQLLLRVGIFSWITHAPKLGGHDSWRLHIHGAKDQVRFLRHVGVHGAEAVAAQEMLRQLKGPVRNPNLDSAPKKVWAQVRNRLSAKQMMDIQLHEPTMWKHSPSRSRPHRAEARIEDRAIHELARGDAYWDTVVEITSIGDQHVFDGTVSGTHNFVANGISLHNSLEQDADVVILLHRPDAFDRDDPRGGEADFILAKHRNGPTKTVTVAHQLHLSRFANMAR

[6] = reduction of Shn3 3'UTR-driven luciferase in osteoblasts – cell-based, Clone20 osteoblasts, firefly luciferase, cherry-picked, dose response (AID 624132);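 also: firefly luciferase luminescence from reporter carrying the Shn3 3'UTR in osteoblasts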
[7] = non-specific 3'UTR reporter inhibition in Clone20-Shn3RL – cell-based, Renilla luciferase, cherry-picked, counter-screen for Shn3 inhibitor project, dose response (AID 624133)
[8] = target: T2, High affinity choline transporter 1; experiment: human choline transporter blockers, potency – cell-based, 5-point CRC, membrane potential dye, dose response (AID 504840)

Chain of Melanin-concentrating hormone receptor 1 (Q99705 whole entry): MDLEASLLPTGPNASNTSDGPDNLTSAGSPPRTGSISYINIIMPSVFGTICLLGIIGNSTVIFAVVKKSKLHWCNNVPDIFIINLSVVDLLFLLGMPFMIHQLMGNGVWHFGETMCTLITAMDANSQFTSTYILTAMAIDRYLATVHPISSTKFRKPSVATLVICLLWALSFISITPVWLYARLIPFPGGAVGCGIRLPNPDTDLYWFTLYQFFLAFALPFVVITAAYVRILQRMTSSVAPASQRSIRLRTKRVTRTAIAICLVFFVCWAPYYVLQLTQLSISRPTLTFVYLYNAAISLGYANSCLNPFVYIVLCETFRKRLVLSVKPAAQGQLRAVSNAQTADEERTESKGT

Compound | IC50 [1] | IC50 [2] | CC50 (Vero) | AC50 [3] | IC50 [4] | EC50 (Protein RecA) | AC50 [5] | AC50 [6] | AC50 [7] | IC50 [8]
O=c1c(-c2cccc(F)c2)c(Br)cnn1Cc1cccc2ccccc12 | 0.533 µM (active) | 0.533 µM (active) |  |  |  |  |  |  |  | 
Cc1nnc(NC(=O)c2nc(S(=O)(=O)Cc3ccccc3)ncc2Cl)s1 |  |  | 17.8 µM (active) | > 70 µM (inactive) | 4.47 µM (active) | 4.01 µM (active) | 17.8 µM (active) | 1.34 µM (active) | 12.8 µM (active) | 7.31 µM (active)
